# Measured values as given in US9867376B2, “Herbicidal compositions comprising N-tetrazol-5-yl)- or N-(triazol-5-yl)arylcarboxamides” (priority 2012, dated 2018).
# Key:
# Assay type in all cases: in vivo
# Galium aparine = test: Field trial, post-emergence, visual scoring; conditions: alone
# Description: (§1) The tests were conducted outdoors (plot trials, 10 m^2 per plot, 2 repetitions, spray application with 200-300 liters of water per hectare). Crops and broad-leaved weeds/weed grasses were sown under customary field conditions. In addition, a natural weed flora also appeared. Application was by the post-emergence method. The application rates of the herbicidally active compounds applied on their own or in combinations are likewise shown in the tables below. Evaluations were by visual scoring (using a 0-100% scale) after application by comparison of treated and untreated test variants.
# (§2) The abbreviations denote: • a.i.=active ingredient • E^C=expected value according to Colby (E^C=A+B−A×B100) • Δ=difference (%) of the measured value to the expected value (%) (measured value minus expected value)
# (§3) Evaluation: • measured value E is greater than E^C:→synergism (+Δ) • measured value E equals E^C:→additive effect • measured value E is smaller than E^C:→antagonism (−Δ)
# Viola tricolor = test: Greenhouse trial, post-emergence, visual herbicidal effect; conditions: alone
# Description: (§4) The weed seeds were sown in pots (diameter 8 cm) with sandy loam soil and germinated under optimum conditions. The herbides were applied by the post-emergence method onto the pots with the cultures, at a spray volume of 300 I/ha. The herbicides were applied on their own and in combination. The trial was conducted in a greenhouse under optimum growth conditions. The herbicidal effects were assessed visually by comparison of untreated and treated plants. The percentages mean: 0%=no effects, 100%=the plants die off completely). The percentages are used to calculate interactions between individual treatments and combination treatment according to S. R. Colby, Weeds 15, pages 20 to 22 (1967).
# as §2, §3
# Phalaris minor = test: as above; conditions: Table 5-03, greenhouse, alone, 2 g of a.i./ha
# Description: as §4, §2, §3
# Avena fatua = test: as above; conditions: alone
# Description: as §4, §2, §3
# Papaver rhoeas = test: as above; conditions: alone
# Description: as §4, §2, §3
# Polygonum convolvulus = test: as above; conditions: alone
# Description: as §4, §2, §3
# Centaurea cyanis = test: as above; conditions: alone
# Description: as §4, §2, §3
# Veronica hederifolia = test: Field trial, post-emergence, visual scoring; conditions: alone, 25 g of a.i./ha
# Description: as §1, §2, §3
# Digitaria sanguinalis = test: Greenhouse trial, post-emergence, visual herbicidal effect
# Description: as §4, §2, §3
# Xanthium strumarium = test: as above; conditions: alone
# Description: as §4, §2, §3
# Brachiaria platyphylla = test: as above
# Description: as §4, §2, §3
# Echinochloa crus-galli = test: as above
# Description: as §4, §2, §3
# Bidens pilosa = test: as above
# Description: as §4, §2, §3
# Pharbitis purpurea = test: as above; conditions: alone
# Description: as §4, §2, §3
# Setaria viridis [1] = test: as above; conditions: alone
# Description: as §4, §2, §3
# Setaria viridis [2] = test: Field trial, post-emergence, visual scoring; conditions: alone
# Description: as §1, §2, §3
# [3] = test system: broad-leaved weeds/weed grasses; test: Field trial, post-emergence, visual scoring (species not listed above); conditions: dosage 25 g of a.i./ha
# Description: as §1, §2, §3
# Lolium multiflorum = test: Field trial, post-emergence, visual scoring; conditions: alone
# Description: as §1, §2, §3
# Sida spinosa = test: Field trial, post-emergence, visual scoring; conditions: alone
# Description: as §1, §2, §3
# Cassia obtusifolia = test: Field trial, post-emergence, visual scoring; conditions: alone
# Description: as §1, §2, §3
# Ambrosia artemisiifolia = test: Greenhouse trial, post-emergence, visual herbicidal effect; conditions: alone
# Description: as §4, §2, §3
# Portulaca oleracea = test: Field trial, post-emergence, visual scoring; conditions: Table 5-16, field, alone, 50 g of a.i./ha
# Description: as §1, §2, §3
smiles,measurement,setting,value
Cn1nnnc1NC(=O)c1ccc(C(F)(F)F)cc1S(C)(=O)=O [A1-2],Activity [%] against Galium aparine,"Galium aparine; Table 5-04, field, 25 g of a.i./ha",70%
same,Activity [%] against Viola tricolor,"Viola tricolor; Table 5-02, greenhouse, 2 g of a.i./ha",60%
same,Activity [%] against Phalaris minor,Phalaris minor,0%
same,Activity [%] against Avena fatua,"Avena fatua; Table 5-01, greenhouse, 2 g of a.i./ha",0%
Cc1c(C(=O)Nc2nnnn2C)ccc(C(F)(F)F)c1S(C)(=O)=O [A1-7],Activity [%] against Viola tricolor,"Viola tricolor; Table 5-09, greenhouse, 3 g of a.i./ha",50%
same,Activity [%] against Papaver rhoeas,"Papaver rhoeas; Table 5-06, greenhouse, 3 g of a.i./ha",60%
same,Activity [%] against Avena fatua,"Avena fatua; Table 5-05, greenhouse, 3 g of a.i./ha",0%
same,Activity [%] against Avena fatua,"Avena fatua; Table 5-07, greenhouse, 3 g of a.i./ha",0%
same,Activity [%] against Polygonum convolvulus,"Polygonum convolvulus; Table 5-08, greenhouse, 3 g of a.i./ha",10%
Cc1c(C(=O)Nc2nnnn2C)ccc(S(C)(=O)=O)c1-n1cccn1 [A1-26],Activity [%] against Viola tricolor,"Viola tricolor; Table 5-42, greenhouse, 3 g of a.i./ha",50%
same,Activity [%] against Papaver rhoeas,"Papaver rhoeas; Table 5-39, greenhouse, 6 g of a.i./ha",50%
same,Activity [%] against Papaver rhoeas,"Papaver rhoeas; Table 5-41, greenhouse, 3 g of a.i./ha",30%
same,Activity [%] against Centaurea cyanis,"Centaurea cyanis; Table 5-38, greenhouse, 3 g of a.i./ha",40%
same,Activity [%] against Centaurea cyanis,"Centaurea cyanis; Table 5-40, greenhouse, 6 g of a.i./ha",60%
COCCOCc1c(S(C)(=O)=O)ccc(C(=O)Nc2nnnn2C)c1Cl [A1-63],Activity [%] against Veronica hederifolia,"Veronica hederifolia; Table 5-74, field",68%
same,Activity [%] against Digitaria sanguinalis,"Digitaria sanguinalis; Table 5-68, greenhouse, alone, 8 g of a.i./ha",45%
same,Activity [%] against Xanthium strumarium,"Xanthium strumarium; Table 5-73, greenhouse, 8 g of a.i./ha",80%
same,Activity [%] against Brachiaria platyphylla,"Brachiaria platyphylla; Table 5-67, greenhouse, alone, 8 g of a.i./ha",10%
same,Activity [%] against Echinochloa crus-galli,"Echinochloa crus-galli; Table 5-69, greenhouse, alone, 8 g of a.i./ha",85%
same,Activity [%] against Bidens pilosa,"Bidens pilosa; Table 5-71, greenhouse, alone, 8 g of a.i./ha",50%
same,Activity [%] against Pharbitis purpurea,"Pharbitis purpurea; Table 5-72, greenhouse, 4 g of a.i./ha",35%
same,Activity [%] against Setaria viridis,"Setaria viridis [1]; Table 5-70, greenhouse, 4 g of a.i./ha",50%
COc1c(S(C)(=O)=O)ccc(C(=O)Nc2nnnn2C)c1Cl [A1-67],Activity [%] against Veronica hederifolia,"Veronica hederifolia; Table 5-79, field",75%
same,Activity [%] against Setaria viridis,"Setaria viridis [2]; Table 5-80, field, 25 g of a.i./ha",65%
same,Activity [%] against Xanthium strumarium,"Xanthium strumarium; Table 5-77, greenhouse, 4 g of a.i./ha",0%
same,Activity [%] against Polygonum convolvulus,"Polygonum convolvulus; Table 5-78, greenhouse, 4 g of a.i./ha",10%
COc1c(C(=O)Nc2nnnn2C)ccc(C(F)F)c1SC [A1-81],Activity [%] against Brachiaria platyphylla,"Brachiaria platyphylla; Table 5-94, greenhouse, alone, 1 g of a.i./ha",10%
same,Activity [%] against Echinochloa crus-galli,"Echinochloa crus-galli; Table 5-95, greenhouse, alone, 1 g of a.i./ha",10%
Cn1ncnc1NC(=O)c1ccc(C(F)(F)F)c(S(C)(=O)=O)c1Cl [A2-9],Activity [%] against Digitaria sanguinalis,"Digitaria sanguinalis; Greenhouse, dosage 2 g of a.i./ha",65%
same,Activity [%] against Brachiaria platyphylla,"Brachiaria platyphylla; Greenhouse, dosage 1 g of a.i./ha, Table 5-105",0%
same,Activity [%] against Echinochloa crus-galli,"Echinochloa crus-galli; Greenhouse, dosage 1 g of a.i./ha, Table 5-108",0%
COCc1nc(C(F)(F)F)ccc1C(=O)Nc1nnnn1C [A4-2],Activity [%] against Stellaria media,[3]; Table 5-114,63%
same,Activity [%] against Brachiaria platyphylla,"Brachiaria platyphylla; Greenhouse, dosage 1 g of a.i./ha, Table 5-113",0%
Cn1nnnc1NC(=O)c1ccc(C(F)(F)F)nc1Cl [A4-7],Activity [%] against Stellaria media,[3]; Table 5-116,60%
same,Activity [%] against Echinochloa crus-galli,"Echinochloa crus-galli; Greenhouse, dosage 3 g of a.i./ha, Table 5-115",50%
Cc1cc(Cl)ccc1OCC(=O)O [MCPA],Activity [%] against Galium aparine,"Galium aparine; Table 5-61, field, 280 g of a.i./ha",0%
same,Activity [%] against Lolium multiflorum,"Lolium multiflorum; Table 5-54, field, 280 g of a.i./ha",0%
same,Activity [%] against Setaria viridis,"Setaria viridis [2]; Table 5-26, field, 280 g of a.i./ha",0%
same,Activity [%] against Setaria viridis,"Setaria viridis [2]; Table 5-80, field, 280 g of a.i./ha",0%
COc1c(Cl)ccc(Cl)c1C(=O)O [dicamba],Activity [%] against Digitaria sanguinalis,"Digitaria sanguinalis; Greenhouse, dosage 12.5 g of a.i./ha",0%
same,Activity [%] against Brachiaria platyphylla,"Brachiaria platyphylla; Greenhouse, dosage 12.5 g of a.i./ha, Table 5-105",0%
same,Activity [%] against Brachiaria platyphylla,"Brachiaria platyphylla; Table 5-64, greenhouse, alone, 25 g of a.i./ha",10%
same,Activity [%] against Brachiaria platyphylla,"Brachiaria platyphylla; Table 5-94, greenhouse, alone, 12.5 g of a.i./ha",0%
same,Activity [%] against Echinochloa crus-galli,"Echinochloa crus-galli; Greenhouse, dosage 12.5 g of a.i./ha, Table 5-108",0%
same,Activity [%] against Echinochloa crus-galli,"Echinochloa crus-galli; Greenhouse, dosage 12.5 g of a.i./ha, Table 5-115",0%
same,Activity [%] against Echinochloa crus-galli,"Echinochloa crus-galli; Table 5-95, greenhouse, alone, 12.5 g of a.i./ha",0%
same,Activity [%] against Setaria viridis,"Setaria viridis [1]; Table 5-65, greenhouse, 25 g of a.i./ha",0%
O=C(Nc1ccc(F)cc1F)c1cccnc1Oc1cccc(C(F)(F)F)c1 [diflufenican],Activity [%] against Lolium multiflorum,"Lolium multiflorum; Table 5-58, field, 120 g of a.i./ha",10%
CP(=O)(O)CCC(N)C(=O)O (centres unmarked) [glufosinate-ammonium],Activity [%] against Sida spinosa,"Sida spinosa; Table 5-10, field, 125 g of a.i./ha",50%
O=C(O)CNCP(=O)([O-])O.[K+] [glyphosate-potassium],Activity [%] against Sida spinosa,"Sida spinosa; Table 5-11, field, 200 g of a.i./ha",30%
O=C(O)CNCP(=O)(O)O [glyphosate],Activity [%] against Cassia obtusifolia,"Cassia obtusifolia; Table 5-12, field, 200 g of a.i./ha",65%
Cc1ccc2c(c1)[C@H](Nc1nc(N)nc(C(C)F)n1)[C@@H](C)C2 (some centres unmarked) [indaziflam],Activity [%] against Cassia obtusifolia,"Cassia obtusifolia; Table 5-24, field, 25 g of a.i./ha",65%
O=c1[nH]c2c(c(=O)n1C1CCCCC1)CCC2 [lenacil],Activity [%] against Digitaria sanguinalis,"Digitaria sanguinalis; Table 5-35, greenhouse, alone, 4 g of a.i./ha",0%
same,Activity [%] against Digitaria sanguinalis,"Digitaria sanguinalis; Table 5-68, greenhouse, alone, 400 g of a.i./ha",0%
same,Activity [%] against Ambrosia artemisiifolia,"Ambrosia artemisiifolia; Table 5-29, greenhouse, 16 g of a.i./ha",0%
same,Activity [%] against Ambrosia artemisiifolia,"Ambrosia artemisiifolia; Table 5-32, greenhouse, 4 g of a.i./ha",0%
same,Activity [%] against Xanthium strumarium,"Xanthium strumarium; Table 5-56, greenhouse, 4 g of a.i./ha",0%
same,Activity [%] against Xanthium strumarium,"Xanthium strumarium; Table 5-73, greenhouse, 400 g of a.i./ha",0%
same,Activity [%] against Brachiaria platyphylla,"Brachiaria platyphylla; Greenhouse, dosage 4 g of a.i./ha, Table 5-109",0%
same,Activity [%] against Brachiaria platyphylla,"Brachiaria platyphylla; Greenhouse, dosage 4 g of a.i./ha, Table 5-110",0%
same,Activity [%] against Brachiaria platyphylla,"Brachiaria platyphylla; Table 5-55, greenhouse, alone, 4 g of a.i./ha",0%
same,Activity [%] against Brachiaria platyphylla,"Brachiaria platyphylla; Table 5-57, greenhouse, alone, 4 g of a.i./ha",0%
same,Activity [%] against Brachiaria platyphylla,"Brachiaria platyphylla; Table 5-67, greenhouse, alone, 800 g of a.i./ha",0%
same,Activity [%] against Echinochloa crus-galli,"Echinochloa crus-galli; Table 5-69, greenhouse, alone, 400 g of a.i./ha",0%
same,Activity [%] against Bidens pilosa,"Bidens pilosa; Greenhouse, dosage 4 g of a.i./ha",0%
same,Activity [%] against Bidens pilosa,"Bidens pilosa; Table 5-28, greenhouse, alone, 4 g of a.i./ha",0%
same,Activity [%] against Bidens pilosa,"Bidens pilosa; Table 5-33, greenhouse, alone, 4 g of a.i./ha",0%
same,Activity [%] against Bidens pilosa,"Bidens pilosa; Table 5-71, greenhouse, alone, 400 g of a.i./ha",0%
same,Activity [%] against Pharbitis purpurea,"Pharbitis purpurea; Table 5-30, greenhouse, 4 g of a.i./ha",0%
same,Activity [%] against Pharbitis purpurea,"Pharbitis purpurea; Table 5-34, greenhouse, 4 g of a.i./ha",0%
same,Activity [%] against Pharbitis purpurea,"Pharbitis purpurea; Table 5-72, greenhouse, 100 g of a.i./ha",0%
same,Activity [%] against Setaria viridis,"Setaria viridis [1]; Table 5-27, greenhouse, 8 g of a.i./ha",0%
same,Activity [%] against Setaria viridis,"Setaria viridis [1]; Table 5-31, greenhouse, 8 g of a.i./ha",0%
same,Activity [%] against Setaria viridis,"Setaria viridis [1]; Table 5-70, greenhouse, 100 g of a.i./ha",0%
CSc1nnc(C(C)(C)C)c(=O)n1N [metribuzin],Activity [%] against Portulaca oleracea,Portulaca oleracea,0%
same,Activity [%] against Sida spinosa,"Sida spinosa; Table 5-21, field, 50 g of a.i./ha",25%
Cc1c(C(=O)c2cnn(C)c2O)ccc(S(C)(=O)=O)c1C1=NOCC1 [topramezone],Activity [%] against Setaria viridis,"Setaria viridis [2]; Table 5-23, field, 9 g of a.i./ha",30%
